Test results reported in paper PMC11192564 (Cell metabolism, 2023).

Columns and labels:
[1] = molecular target: T1, Samtor (Mus musculus, UniProt Q8BXK4); assay: microscale thermophoresis; format: binding
T1 sequence (Q8BXK4 1-403): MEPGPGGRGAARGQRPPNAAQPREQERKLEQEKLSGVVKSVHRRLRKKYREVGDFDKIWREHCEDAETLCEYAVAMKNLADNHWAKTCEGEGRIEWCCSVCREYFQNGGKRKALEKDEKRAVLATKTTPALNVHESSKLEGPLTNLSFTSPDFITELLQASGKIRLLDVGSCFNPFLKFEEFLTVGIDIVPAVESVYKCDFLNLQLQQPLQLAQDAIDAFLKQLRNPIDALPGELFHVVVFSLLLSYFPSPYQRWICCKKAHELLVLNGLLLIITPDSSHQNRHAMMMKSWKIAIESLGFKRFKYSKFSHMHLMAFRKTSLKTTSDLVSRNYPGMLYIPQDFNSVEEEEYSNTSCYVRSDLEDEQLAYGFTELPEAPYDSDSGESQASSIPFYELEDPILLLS

[2] = molecular target: T2, SAMTOR (Homo sapiens, UniProt Q1RMZ1); assay: microscale thermophoresis; format: binding
T2 sequence (Q1RMZ1 1-405): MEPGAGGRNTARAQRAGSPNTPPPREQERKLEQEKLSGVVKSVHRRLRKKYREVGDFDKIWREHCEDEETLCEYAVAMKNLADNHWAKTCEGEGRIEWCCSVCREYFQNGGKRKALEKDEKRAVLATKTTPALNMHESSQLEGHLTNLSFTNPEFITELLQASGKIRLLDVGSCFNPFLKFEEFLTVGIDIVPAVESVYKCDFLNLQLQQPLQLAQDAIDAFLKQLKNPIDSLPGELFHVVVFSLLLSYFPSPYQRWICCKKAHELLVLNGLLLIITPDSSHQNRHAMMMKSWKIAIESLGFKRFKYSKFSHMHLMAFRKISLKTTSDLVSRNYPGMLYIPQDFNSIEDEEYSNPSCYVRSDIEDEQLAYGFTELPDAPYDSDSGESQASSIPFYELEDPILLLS

- Kd [1]: ~10 µM
- Kd [2]: ~7 µM
Structure (SMILES): C[S+](CC[C@H](N)C(=O)[O-])C[C@H]1O[C@@H](n2cnc3c(N)ncnc32)[C@H](O)[C@@H]1O (some centres unmarked) [SAM]
